Measurements published in patent US11396664B2, “Replicative transposon system” (Max-Delbrück-Centrum für Molekulare Medizin in der …, priority 2016, dated 2022).

System: Helraiser transposase, wild type (WT), SEQ ID NO: 1, consensus Helibat1 Helitron transposase from the bat Myotis lucifugus
Assay: Colorimetric ATPase assay (ATP hydrolysis, malachite green)
Type: biochemical
Conditions: purified transposase; 50 mM HEPES pH 7.5, 100 mM NaCl, 1 mM DTT, 2 mM MgCl2, 37° C; ATP 0.0078 to 1 mM
Procedure: Protein Expression and Purification
Point mutations were made using the QuikChange site-directed mutagenesis method (Agilent). Baculovirus production and protein expression were performed by the Protein Expression Laboratory at the National Cancer Institute as follows:
Cell pellets were resuspended in Nickel affinity column binding buffer (20 mM NaH2PO4 pH 7.4, 500 mM NaCl, 50 mM imidazole, 1 mM TCEP). All subsequent steps were performed at 4° C. Lysis was done by incubating the cells on ice for 30 minutes, then sonication with a Misonix Sonicator 3000 (5×20-sec pulses with 3 minute pause at 82 Watts). […]
ATP hydrolysis was analyzed by measuring the formation of free phosphate (Pi) as a function of time using procedures adapted from Baykov et al. (Baykov A A, Evtushenko O A, Avaeva S M. A malachite green procedure for orthophosphate determination and its use in alkaline phosphatase-based enzyme immunoassay. Anal Biochem 171, 266-270 (1988)). […] An aliquot (150 μl) of a 1 mM malachite green stock solution was added to each well, and the absorbance at 650 nm was measured using a Molecular Devices Spectramax M5 microplate reader. The amount of phosphate released was calculated by comparison to a standard curve generated using KH2PO4. […]

Nc1ncnc2c1ncn2[C@@H]1O[C@H](COP(=O)(O)OP(=O)(O)OP(=O)(O)O)[C@@H](O)[C@H]1O [ATP]
Km: 46 µM
kcat (ATP hydrolysis): 6.8 ± 0.11 s⁻¹
